The source of these data is patent US8415469B2, “Compounds and methods for kinase modulation, and indications therefor” (Plexxikon Inc., priority 2005, dated 2013).

What all share (format): biochemical
In one assay the target is T1, Kit (Homo sapiens, UniProt P10721).
T1 construct: P1332.N6 BI PTP KIT M552-K948-X COD; His6 (N); made in house; host or cells: E. coli (PTP1B co-expressed)
The assay is described as follows: AlphaScreen kinase assay, Kit. To be noted: read-out: IC50, activity toward kinase Kit.

In another assay the target is T2, FGFR1 (Homo sapiens, UniProt P11362, C488A/C584S).
T2 construct: P1351.pET N6 BI-PTP FGFR A458-E765-X C488A, C584S; made in house; host or cells: E. coli (PTP1B co-expressed)
T2 sequence (P11362 458-765 C488A/C584S): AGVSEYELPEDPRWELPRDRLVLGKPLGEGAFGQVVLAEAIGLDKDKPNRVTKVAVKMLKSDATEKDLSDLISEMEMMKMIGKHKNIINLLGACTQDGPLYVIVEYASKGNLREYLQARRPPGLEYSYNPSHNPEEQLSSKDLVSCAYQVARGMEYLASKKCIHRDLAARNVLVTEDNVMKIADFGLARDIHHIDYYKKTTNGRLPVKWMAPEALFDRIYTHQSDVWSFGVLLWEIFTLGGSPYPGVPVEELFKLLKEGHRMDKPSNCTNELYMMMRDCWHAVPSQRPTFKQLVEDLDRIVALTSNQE
Kind of assay: AlphaScreen kinase assay, FGFR1. To be noted: read-out: IC50, activity toward kinase FGFR. In general terms: Bead proximity is the source of the signal in Alpha formats.

The next assay has as its target T3, Fms (Homo sapiens, UniProt P07333).
T3 construct: purchased Upstate Biotechnology
The assay is described as follows: AlphaScreen kinase assay, Fms. As to conditions: read-out: IC50, activity toward kinase Fms.

In the next assay the target is T4, B-Raf V600E (Homo sapiens, UniProt P15056, V600E).
T4 construct: P4254. pFastBacBD-CDC37 BRAF D437-K722-X, V600E; His6 with pFastBac HT leader (TEV site) (N); made in house; host or cells: Sf9 (baculovirus; chaperone CDC37 co-expressed)
T4 sequence (P15056 with tags, fused parts or gaps V600E): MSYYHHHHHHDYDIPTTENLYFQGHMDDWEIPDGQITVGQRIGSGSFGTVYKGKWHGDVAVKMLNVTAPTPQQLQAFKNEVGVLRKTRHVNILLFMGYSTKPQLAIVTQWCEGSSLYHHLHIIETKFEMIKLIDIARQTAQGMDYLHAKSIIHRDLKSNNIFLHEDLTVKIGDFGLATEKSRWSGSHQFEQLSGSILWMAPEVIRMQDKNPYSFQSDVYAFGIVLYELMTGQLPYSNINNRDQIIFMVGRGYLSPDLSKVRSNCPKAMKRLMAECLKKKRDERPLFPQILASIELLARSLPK
Kind of assay: AlphaScreen kinase assay, B-Raf V600E. To be noted: read-out: IC50, activity toward kinase B-Raf V600E.

pIC50: −log10 of the molar value.

T3 sequence (P07333 20-972): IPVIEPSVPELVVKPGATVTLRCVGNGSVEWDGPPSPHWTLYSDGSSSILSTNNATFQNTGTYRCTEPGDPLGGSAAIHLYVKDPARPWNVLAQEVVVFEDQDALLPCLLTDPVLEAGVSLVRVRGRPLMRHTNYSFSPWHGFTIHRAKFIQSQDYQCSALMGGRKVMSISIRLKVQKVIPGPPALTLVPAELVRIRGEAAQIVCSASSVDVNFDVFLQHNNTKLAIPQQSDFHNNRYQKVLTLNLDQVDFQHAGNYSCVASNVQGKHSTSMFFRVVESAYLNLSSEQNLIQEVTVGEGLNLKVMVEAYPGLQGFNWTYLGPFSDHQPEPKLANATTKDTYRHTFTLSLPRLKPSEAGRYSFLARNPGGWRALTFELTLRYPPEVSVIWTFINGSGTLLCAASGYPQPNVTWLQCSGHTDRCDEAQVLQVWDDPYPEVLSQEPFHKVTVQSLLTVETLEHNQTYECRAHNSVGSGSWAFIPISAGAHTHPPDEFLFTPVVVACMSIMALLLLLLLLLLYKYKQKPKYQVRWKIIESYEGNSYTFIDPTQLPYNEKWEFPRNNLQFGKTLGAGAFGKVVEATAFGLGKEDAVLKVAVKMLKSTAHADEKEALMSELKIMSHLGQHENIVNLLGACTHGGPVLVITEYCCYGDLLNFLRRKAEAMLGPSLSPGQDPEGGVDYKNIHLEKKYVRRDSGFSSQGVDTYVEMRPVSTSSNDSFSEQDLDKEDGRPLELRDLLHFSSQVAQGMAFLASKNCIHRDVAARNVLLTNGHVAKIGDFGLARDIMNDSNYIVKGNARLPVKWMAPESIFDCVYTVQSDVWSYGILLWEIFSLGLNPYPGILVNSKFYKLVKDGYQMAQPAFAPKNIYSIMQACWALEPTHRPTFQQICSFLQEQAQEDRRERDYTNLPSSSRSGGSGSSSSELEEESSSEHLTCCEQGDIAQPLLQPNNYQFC
T1 sequence (P10721 with tags, fused parts or gaps): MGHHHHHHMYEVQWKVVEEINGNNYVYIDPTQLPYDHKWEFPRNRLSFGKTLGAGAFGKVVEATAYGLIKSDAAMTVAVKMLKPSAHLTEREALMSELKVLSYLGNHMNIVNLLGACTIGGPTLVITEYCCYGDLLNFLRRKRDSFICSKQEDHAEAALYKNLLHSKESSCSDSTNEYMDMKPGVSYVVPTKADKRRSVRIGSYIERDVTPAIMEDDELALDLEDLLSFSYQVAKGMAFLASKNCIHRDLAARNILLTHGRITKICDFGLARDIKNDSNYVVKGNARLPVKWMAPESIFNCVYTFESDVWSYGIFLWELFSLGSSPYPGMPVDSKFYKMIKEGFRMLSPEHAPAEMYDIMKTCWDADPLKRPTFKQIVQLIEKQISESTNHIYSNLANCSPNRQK
Description for Kit: AlphaScreen assay was used to screen additional kinases. The assay is similarly dependent on the phosphorylation of a peptide substrate. In this assay, an antibody that recognizes phosphorylated substrate is bound to an acceptor bead. The peptide substrate is attached to biotin, which binds to a donor head that contains streptavidin. Thus phosphorylated substrate is bound by antibody and streptavidin, bringing the donor and acceptor heads into close proximity when kinase is not inhibited. The donor produces singlet oxygen which results in emission from the acceptor when they are in close proximity. Conversely, when kinase is inhibited, the donor and acceptor beads are not associated and the emission from the acceptor is reduced.
AlphaScreen assays were done using compounds dissolved in DMSO to a concentration of 20 mM. The compounds were diluted accordingly to the desired final concentrations in each sample well, using 1:3 serial dilution for a total of 8 concentration points. Plates were prepared such that each kinase reaction is 20 μl in 1× kinase buffer, 5% DMSO and 10 μM ATP. After incubation of the kinase reaction for 1 hour at room temperature, 5 μl of donor beads in stop buffer (50 mM EDTA in 1× kinase buffer) was added, the sample was mixed and incubated for 20 minutes at room temperature before adding 5 μl of acceptor beads in stop buffer. The samples were incubated for 60 minutes at room temperature and the signal per well was read on AlphaQuest reader.

One may read the pIC50 as the IC50 on a negative log10 scale, so that one unit is a factor of ten. For `CCCS(=O)(=O)Nc1ccc(F)c(C(OC)c2c[nH]c3ncc(Br)cc23)c1F` (stereo not shown) [Compound P-1275], the pIC50 at Kit was at least 5.00.
With `CN(C)c1ccc(Cc2c[nH]c3ncccc23)cn1` [Compound P-0935], the pIC50 at FGFR1 and on Kit was at least 5.00 throughout.
For the compound `O=C(c1ccccc1OCc1ccccc1)c1c[nH]c2ncc(Br)cc12` [Compound P-1382], the pIC50 on FGFR1 and at Kit was at least 5.00 in each case.
On to `O=C(c1cc(OC(F)F)cc(OC(F)F)c1)c1c[nH]c2ncc(-c3ccccc3)cc12` [Compound P-1521, (3,5-Bis-difluoromethoxy-phenyl)-(5-phenyl-1H-pyrrolo[2,3-b]pyridin-3-yl)-methanone], for which, at Kit, the pIC50 was at least 5.00.
Regarding `CCOc1cccc(Cc2c[nH]c3ncccc23)c1` [Compound P-0459], the pIC50 on FGFR1 and at Kit was at least 5.00 in each case.
For `c1ccc(Nc2cnc3[nH]ccc3c2)cc1` [Compound P-0384], the negative logarithm of the IC50 (pIC50) on Kit was at least 5.00.
The same measure, in the same setting: the figure for `O=C(c1ccc(Cl)cc1Cl)c1c[nH]c2ncc(Br)cc12` [Compound P-1565] is at least 5.00.
As for `COC(c1c(F)ccc(NC(=O)Nc2ccc(F)cc2)c1F)c1c[nH]c2ncc(Cl)cc12` (stereo not shown) [Compound P-1653], the pIC50 at Fms was at least 5.00.
On to `Clc1ccc(Cc2c[nH]c3nccc(Br)c23)cn1` [Compound P-0447], for which the negative-log IC50 (pIC50) on FGFR1, at B-Raf V600E and on Kit was at least 5.00 in each case.
With `O=C(c1ccc2nsnc2c1)c1c[nH]c2ncc(-c3cccnc3)cc12` [Compound P-0905], the pIC50 on B-Raf V600E and on Kit was at least 5.00 each time.
In the case of `CS(=O)(=O)Nc1cccc(-c2cnc3[nH]cc(C(=O)c4cccc5c4OC(F)(F)O5)c3c2)c1` [Compound P-1516, N-{3-[3-(2,2-Difluoro-benzo[1,3]dioxole-4-carbonyl)-1H-pyrrolo[2,3-b]pyridin-5-yl]-phenyl}-methanesulfonamide], the pIC50 on FGFR1 and at B-Raf V600E was at least 5.00 each time.
`CC(=O)Nc1cccc(-c2cnc3[nH]cc(C(=O)c4cc(F)cc(C(F)(F)F)c4)c3c2)c1` [Compound P-1421, N-{3-[3-(3-Fluoro-5-trifluoromethyl-benzoyl)-1H-pyrrolo[2,3-b]pyridin-5-yl]-phenyl}-acetamide]: the pIC50 on Fms is at least 5.00.
In the case of `Cn1cnnc1-c1cccc(Nc2c[nH]c3ncccc23)c1` [Compound P-1504, [3-(4-Methyl-4H-[1,2,4]triazol-3-yl)-phenyl]-(1H-pyrrolo[2,3-b]pyridin-3-yl)-amine], the negative logarithm of the IC50 (pIC50) at Fms is at least 5.00.
As for `O=C(c1ccc(Cl)nc1)c1c[nH]c2ncc(Br)cc12` [Compound P-0499], the pIC50 on Kit was at least 5.00.
Still for that read-out and setting: the figure for `c1ccc(Sc2c[nH]c3ncccc23)cc1` [Compound P-0626] is at least 5.00.
As to `CN(c1ccc(Cl)c(Cl)c1)c1c[nH]c2ncccc12` [Compound P-1494, (3,4-Dichloro-phenyl)-methyl-(1H-pyrrolo[2,3-b]pyridin-3-yl)-amine], the negative-log IC50 (pIC50) on Fms is at least 5.00.
Turning to `COc1cccc(Cc2c[nH]c3ncc(-c4ccccc4)cc23)c1` [Compound P-1084], the pIC50 at Kit was at least 5.00.
As to `COc1cccc(CCc2c[nH]c3ncccc23)c1` [Compound P-0450], the pIC50 at Kit is at least 5.00.
`O=C(c1cccc(OC(F)(F)F)c1)c1c[nH]c2ncc(-c3ccccc3)cc12` [Compound P-1408, (5-Phenyl-1H-pyrrolo[2,3-b]pyridin-3-yl)-(3-trifluoromethoxy-phenyl)-methanone]: the pIC50 on Kit was at least 5.00.
Turning to `FC(F)Oc1cc(Cc2c[nH]c3ncc(Br)cc23)cc(OC(F)F)c1` [Compound P-1538, 3-(3,5-Bis-difluoromethoxy-benzyl)-5-bromo-1H-pyrrolo[2,3-b]pyridine], the negative-log IC50 (pIC50) at FGFR1 and on Kit was at least 5.00 in each case.
On to `OC(c1cccc(OC(F)F)c1)c1c[nH]c2ncc(Br)cc12` (stereo not shown) [Compound P-1511], for which, at Fms, the pIC50 is at least 5.00.
Consider `CC(C)(C)Oc1ccc(Cc2c[nH]c3ncccc23)cn1` [Compound P-0819], for which the pIC50 on FGFR1 and at B-Raf V600E was at least 5.00 throughout.
On to `Cc1ccc(Cc2c[nH]c3ncccc23)cc1` [Compound P-0346], for which the negative logarithm of the IC50 (pIC50) at FGFR1 and at Kit was at least 5.00 each time.
In the case of `COc1cccc(CCc2c[nH]c3ncc(-c4ccsc4)cc23)c1` [Compound P-0519], at Kit, the pIC50 was at least 5.00.
On the same count and under the same terms, for `COc1ccc(Sc2c[nH]c3ncc(Cl)cc23)nc1` [Compound P-1574] the value was at least 5.00.
With `COCCNC(=O)Nc1cccc(C(=O)c2c[nH]c3ncccc23)c1` [Compound P-1761, 1-(2-Methoxy-ethyl)-3-[3-(1H-pyrrolo[2,3-b]pyridine-3-carbonyl)-phenyl]urea], the pIC50 on Fms was at least 5.00.
`OCc1cccc(-c2c(CNCC(O)c3ccc(O)cc3)[nH]c3ncccc23)c1` (stereo not shown) [Compound P-0554]: the pIC50 at Kit was at least 5.00.
Take `O=C(c1cccc(OC(F)F)c1)c1c[nH]c2ncc(Br)cc12` [Compound P-1514, (5-Bromo-1H-pyrrolo[2,3-b]pyridin-3-yl)-(3-difluoromethoxy-phenyl)-methanone]: the pIC50 on Kit was at least 5.00.
Take `COc1cccc(Cc2c[nH]c3ncc(-c4ccc(Cl)s4)cc23)c1` [Compound P-0658]: the pIC50 on FGFR1 and at Kit was at least 5.00 in each case.
As for `COc1cccc(C(=O)c2c[nH]c3ncc(Nc4ccccc4)cc23)c1` [Compound P-1120], the pIC50 at FGFR1 and on B-Raf V600E was at least 5.00 in each case.
As to `COc1cccc(Cc2c[nH]c3ncc(-c4ccc(C(F)(F)F)cc4)cc23)c1F` [Compound P-1324, 3-(2-Fluoro-3-methoxy-benzyl)-5-(4-trifluoromethyl-phenyl)-1H-pyrrolo[2,3-b]pyridine], the pIC50 on Fms is at least 5.00.
As to `COC(=O)c1cnc2[nH]ccc2c1` [Compound P-1543], at Kit, the negative-log IC50 (pIC50) was at least 5.00.
As for `O=C(c1cccc(C(F)(F)F)c1)c1c[nH]c2ncc(-c3ccccc3)cc12` [Compound P-1405, (5-Phenyl-1H-pyrrolo[2,3-b]pyridin-3-yl)-(3-trifluoromethyl-phenyl)-methanone], the negative-log IC50 (pIC50) on Fms is at least 5.00.
Still for that read-out and setting: the figure for `O=C(NCC1CC1)Nc1ccc(F)c(Cc2c[nH]c3ncc(Cl)cc23)c1F` [Compound P-1652, 1-[3-(5-Chloro-1H-pyrrolo[2,3-b]pyridin-3-ylmethyl)-2,4-difluoro-phenyl]-3-cyclopropylmethyl-urea] is at least 5.00.
On to `COc1ccc(C(=O)c2c[nH]c3ncc(Br)cc23)c(F)c1` [Compound P-1320], for which, on Kit, the pIC50 was at least 5.00.
As to `O=C(c1c(F)ccc(N(Cc2ccccc2)Cc2ccccc2)c1F)c1c[nH]c2ncc(-c3cccnc3)cc12` [Compound P-1074], the pIC50 at FGFR1 and on B-Raf V600E was at least 5.00 each time.
In the case of `OC(c1ccc2c(c1)OC(F)(F)O2)c1c[nH]c2ncc(Br)cc12` (stereo not shown) [Compound P-1550], the pIC50 at FGFR1, on B-Raf V600E and on Kit was at least 5.00 throughout.
On to `COc1cccc(Cc2c[nH]c3ncccc23)c1` [Compound P-0239], for which the negative-log IC50 (pIC50) on Fms is at least 5.00.
On to `FC(F)(F)Oc1cccc(Cc2c[nH]c3nccc(Br)c23)c1` [Compound P-1123], for which the pIC50 on FGFR1 and on B-Raf V600E was at least 5.00 throughout.
As to `O=[N+]([O-])c1c[nH]c2nccc(Cl)c12` [Compound P-1096], on Kit, the pIC50 was at least 5.00.
Turning to `OC(c1ccc(NCc2ccc(C(F)(F)F)cc2)nc1)c1c[nH]c2ncccc12` (stereo not shown) [Compound P-0291], at Fms, the pIC50 is at least 5.00.
Consider `O=[N+]([O-])c1ccc(Sc2c[nH]c3ncc(Cl)cc23)nc1` [Compound P-1562], for which the pIC50 at Kit was at least 5.00.
Turning to `Clc1ccc(-c2cnc3[nH]ccc3c2)cc1` [Compound P-0815], the pIC50 on Kit is at least 5.00.
Consider `COc1nc(NCc2ccc(C(F)(F)F)cc2)ccc1Cc1c[nH]c2ncccc12` [Compound P-1124], for which the pIC50 on Fms was at least 5.00.
For the compound `OCCOc1cccc(Cc2c[nH]c3ncccc23)c1` [Compound P-0411], the pIC50 at FGFR1 and on Kit was at least 5.00 in each case.
`c1ccc(CNc2ccc(Cc3c[nH]c4ncccc34)cc2)cc1` [Compound P-0493]: the negative logarithm of the IC50 (pIC50) at FGFR1 and at B-Raf V600E was at least 5.00 each time.
In the case of `O=C(Nc1ccc(F)cc1)Nc1ccc(F)c(Cc2c[nH]c3ncc(Cl)cc23)c1F` [Compound P-1657, 1-[3-(5-Chloro-1H-pyrrolo[2,3-b]pyridin-3-ylmethyl)-2,4-difluoro-phenyl]-3-(4-fluoro-phenyl)-urea], the pIC50 on Fms was at least 5.00.
Consider `O=C(c1cc(F)cc(C(F)(F)F)c1)c1c[nH]c2ncc(-c3ccccc3)cc12` [Compound P-1407, (3-Fluoro-5-trifluoromethyl-phenyl)-(5-phenyl-1H-pyrrolo[2,3-b]pyridin-3-yl)-methanone], for which the pIC50 at FGFR1 and on Kit was at least 5.00 throughout.
For `Cc1ccc(F)c(C(=O)c2c[nH]c3ncccc23)c1F` [Compound P-1274], at FGFR1, the pIC50 is at least 5.00.
The same measure, in the same setting: for `COCCOc1ccc(F)c(Cc2c[nH]c3ncc(Br)cc23)c1F` [Compound P-1454, 5-Bromo-3-[2,6-difluoro-3-(2-methoxy-ethoxy)-benzyl]-1H-pyrrolo[2,3-b]pyridine] the value was at least 5.00.
In the case of `O=C(c1ccc2c(c1)OC(F)(F)O2)c1c[nH]c2ncc(Br)cc12` [Compound P-1551, (5-Bromo-1H-pyrrolo[2,3-b]pyridin-3-yl)-(2,2-difluoro-benzo[1,3]dioxol-5-yl)-methanone], the pIC50 on Kit was at least 5.00.
